≈ marks a conversion by molar mass, not a printed value.
Key:
Plasmodium falciparum [1] = assay: Antiplasmodial activity against asexual blood-stage Plasmodium falciparum Tm90-C2B using 2% haematocrit and 0.2% parasitemia assessed as reduction in fluorescence measured after 72 hrs by Malaria SYBR Green I-based Fluorescence (MSF) assay; format: functional, organism-based
HepG2 = assay: Cytotoxicity against human HepG2 cells assessed as cell viability measured after 48 hrs by MTT assay; format: toxicity, cell-based; conditions: hepg2
[2] = Metabolic stability in human liver microsomes assessed as half life measured up to 60 mins by LC/MS analysis; format: ADME, Microsome
[3] = Metabolic stability in mouse liver microsomes assessed as half life measured up to 60 mins by LC/MS analysis; format: ADME, Microsome
Plasmodium yoelii [4] = assay: Antimalarial activity against erythrocytic Plasmodium yoelii MRA-428 infected in CF1 mouse assessed as reduction in parasitemia at 10 mg/kg, po once daily for 4 days measured on day 5; format: functional; design: scale not given: the % may be the effect or the level left; conditions: time 4 day
Plasmodium yoelii [5] = assay: Antimalarial activity against erythrocytic Plasmodium yoelii MRA-428 infected in CF1 mouse assessed as reduction in parasitemia at 25 mg/kg, po once daily for 4 days measured on day 5; format: functional; design: scale not given: the % may be the effect or the level left; conditions: time 4 day
Plasmodium yoelii [6] = assay: Antimalarial activity against erythrocytic Plasmodium yoelii MRA-428 infected in CF1 mouse assessed as reduction in parasitemia at 50 mg/kg, po once daily for 4 days measured on day 5; format: functional; design: scale not given: the % may be the effect or the level left; conditions: time 4 day
Plasmodium yoelii [7] = assay: Antimalarial activity against erythrocytic Plasmodium yoelii MRA-428 infected in CF1 mouse assessed as cured mouse at 25 mg/kg, po once daily for 4 days measured on day 28 day; format: functional, organism-based; conditions: time 4.0 day
Plasmodium yoelii [8] = assay: Antimalarial activity against erythrocytic Plasmodium yoelii MRA-428 infected in CF1 mouse assessed as cured mouse at 50 mg/kg, po once daily for 4 days measured on day 28 day; format: functional, organism-based; conditions: time 4.0 day
[9] = Solubility of the compound in potassium phosphate buffer at pH 7.4 by UV-vis spectroscopy; conditions: buffer
MDR1 (human) [10] = assay: Apparent permeability across apical to basolateral side in MDCK transfected with human MDR1 cells incubated for 1 hr by LC-MS analysis; conditions: dog, MDCK-MDR1
MDR1 (human) [11] = assay: Apparent permeability across basolateral to apical side in MDCK transfected with human MDR1 cells incubated for 1 hr by LC-MS analysis; conditions: dog, MDCK-MDR1
MDR1 (human) [12] = assay: Efflux ratio, ratio of apparent permeability across apical to basolateral side over basolateral to apical side in MDCK transfected with human MDR1 cells incubated for 1 hr by LC-MS analysis; conditions: dog
in vitro [13] = conditions: human
Description: Selectivity index, ratio of IC50 for cytotoxicity against human HepG2 cells to IC50 for antiplasmodial activity against asexual blood-stage Plasmodium falciparum D6

in vitro [14] = conditions: human, liver microsomes
in vitro [15] = conditions: mouse, liver microsomes
Plasmodium falciparum [16] = assay: microbe, parasite or virus in culture; conditions: D6, 72 h
Description: Antiplasmodial activity against asexual blood-stage Plasmodium falciparum D6 using 2% haematocrit and 0.2% parasitemia assessed as reduction in fluorescence measured after 72 hrs by Malaria SYBR Green I-based Fluorescence (MSF) assay

Plasmodium falciparum [17] = assay: microbe, parasite or virus in culture; conditions: Dd2, 72 h
Description: Antiplasmodial activity against asexual blood-stage Plasmodium falciparum Dd2 using 2% haematocrit and 0.2% parasitemia assessed as reduction in fluorescence measured after 72 hrs by Malaria SYBR Green I-based Fluorescence (MSF) assay

SMILES	IC50 (Plasmodium falciparum [1])	IC50 (HepG2)	half-life [2]	half-life [3]	Activity (Plasmodium yoelii [4])	Activity (Plasmodium yoelii [5])	Activity (Plasmodium yoelii [6])	Activity (Plasmodium yoelii [7])	Activity (Plasmodium yoelii [8])	solubility [9]	Papp A→B at 1 h (MDR1 (human) [10])	Papp B→A at 1 h (MDR1 (human) [11])	efflux ratio at 1 h (MDR1 (human) [12])	selectivity ratio (in vitro [13])	microsomal CLint at 1 h (in vitro [14])	microsomal CLint at 1 h (in vitro [15])	IC50 (Plasmodium falciparum [16])	IC50 (Plasmodium falciparum [17])
CCC1=C(CC)/C(=C/N[C@H]2CC[C@H](C(F)(F)F)CC2)N=C1c1ccc[nH]1	0.169 µM	24.5 µM	22.5 min	53.6 min	95.7%	100%	100%	Not active; None Of The Mouse Cured Out Of Four Tested	Not active; None Of The Mouse Cured Out Of Four Tested	314 µM (≈ 115 µg/mL)	14 nm/s	6 nm/s	0.43	125	61.6 µL/min/mg	25.9 µL/min/mg	0.196 µM	0.111 µM
CCC1=C(C)/C(=C/NC23C[C@H]4C[C@@H](C2)C[C@@H](C3)C4)N=C1c1ccc(CC)[nH]1	0.000844 µM	2.97 µM	> 60 min	> 60 min	100%	100%	100%	Not active; None Of The Mouse Cured Out Of Four Tested	Not active; None Of The Mouse Cured Out Of Four Tested	3.95 µM (≈ 1.44 µg/mL)	0.26 nm/s	0.27 nm/s	1	3270	–	–	0.000909 µM	0.000348 µM
FC(F)(F)[C@H]1CC[C@H](N/C=C2\N=C(c3ccc[nH]3)C3=C2CCCC3)CC1	0.0327 µM	12.4 µM	33.9 min	> 60 min	–	100%	100%	Not active; None Of The Mouse Cured Out Of Four Tested	Not active; One Mouse Cured Out Of Four	237 µM (≈ 86.1 µg/mL)	12 nm/s	5.2 nm/s	0.43	366	40.8 µL/min/mg	5.49 µL/min/mg	–	0.0496 µM
COC1=C(OC)/C(=C/NC2CCCCCC2)N=C1c1ccc[nH]1	0.0388 µM	16.5 µM	16.1 min	14.6 min	8.81%	81.2%	–	–	–	199 µM (≈ 62.8 µg/mL)	10.2 nm/s	27.8 nm/s	2.7	290	85.9 µL/min/mg	94.7 µL/min/mg	0.0569 µM	0.0356 µM
C[C@H]1CC[C@H](N/C=C2\N=C(c3ccc[nH]3)C3=C2CCCC3)CC1	0.0131 µM	7.77 µM	25.6 min	33 min	–	41.2%	100%	–	–	185 µM (≈ 57.2 µg/mL)	2.7 nm/s	2.3 nm/s	0.85	1320	54.1 µL/min/mg	41.9 µL/min/mg	0.00588 µM	0.00236 µM
CCc1ccc(C2=N/C(=C\NC3CCCCC3)C3=C2OCCO3)[nH]1	0.00135 µM	1.96 µM	51.3 min	16.7 min	0%	19.4%	–	–	–	131 µM (≈ 42.9 µg/mL)	2.5 nm/s	13 nm/s	5.2	308	27 µL/min/mg	82.8 µL/min/mg	0.00636 µM	0.0119 µM
CCC1=C(CC)/C(=C/NC23C[C@H]4C[C@@H](C2)C[C@@H](C3)C4)N=C1c1cc2cc(OC)ccc2[nH]1	0.0559 µM	5.25 µM	> 60 min	> 60 min	87.2%	93.8%	–	–	–	24.4 µM (≈ 10.5 µg/mL)	0.02 nm/s	0.01 nm/s	0.59	125	6.19 µL/min/mg	9.13 µL/min/mg	0.0419 µM	0.0457 µM
COC1=C(OC)/C(=C/NC23C[C@H]4C[C@@H](C2)C[C@@H](C3)C4)N=C1c1ccc[nH]1	0.00446 µM	4.66 µM	17.6 min	43.2 min	63.1%	100%	100%	Not active; One Mouse Cured Out Of Four	Not active; None Of The Mouse Cured Out Of Four Tested	167 µM (≈ 59 µg/mL)	2.7 nm/s	0.25 nm/s	0.093	789	78.7 µL/min/mg	32.1 µL/min/mg	–	0.00596 µM
COC(=O)[C@H]1CC[C@H](N/C=C2\N=C(c3ccc[nH]3)C3=C2CCCC3)CC1	0.17 µM	19.9 µM	16.7 min	10.3 min	–	–	100%	–	–	383 µM (≈ 135 µg/mL)	2.3 nm/s	11 nm/s	4.8	334	82.9 µL/min/mg	134 µL/min/mg	–	0.157 µM

From ChEMBL document CHEMBL6178021, “Optimization of Tambjamines Active against Multiple Stages of Malaria Parasites” (J Med Chem, 2025)
